Legend:
fibrinogen = assay: Amount of fibrinogen in sodium citrate-containing plasma of dogs, thrombin time method; type: in vivo; details: dog sodium citrate plasma, Day 7-4 hr minus Day0-4 hr; FEN 20 mg/kg and/or PIT 2 mg/kg orally once a day for 7 days; average ± standard error
Protocol: (§1) Four hours (Day0-4 hr) and 24 hours (Day0-24 hr) after feeding on the day before the administration start day, blood was collected from antebrachial radial veins, and serum and plasma containing sodium citrate (a citric sodium aqueous solution having a concentration of 3.8% by weight) were obtained. Then using the serum, the total cholesterol (TC), the triglyceride (TG), the phospholipid (PL), and the free fatty acid (NEFA) were quantitatively determined by a Toshiba automatic analyzer (manufactured by Toshiba Medical Systems Corporation, TBA-120FR). Moreover, using the sodium citrate-containing plasma, the amount of fibrinogen was quantitatively determined in accordance with the thrombin time method.
(§2) Incidentally, feeding was performed immediately after every administration.
(§3) Blood was collected after 4 hours of the seventh administration (Day7-4 hr). Using the same manner as in the case of the Day0-4 hr, serum and sodium citrate-containing plasma were obtained, and each of the examinations was performed.
The quantitation results were shown as “an average value±a standard error”. […] Incidentally, the obtained value from each test was regarded as a significant difference when the difference value was less than 5%.

[1] = system: lipid and others in blood (TC, TG, PL, NEFA in serum); assay: Decrease of lipid in blood by combination use of fenofibrate and pitavastatin in dog (serum TC, TG, PL, NEFA); type: in vivo
Protocol: Dogs [female and male beagles (YAKUKEN BEAGLE) (11 male dogs and 2 female dogs, 27 to 73 months old)] were used for the examination. Incidentally, each of the dogs was accommodated in a separate bracket cage in a breeding room under the following conditions: a room temperature of 23±3° C., a humidity of 50±10%, a light period of 8:00 to 20:00, and a dark period of 20:00 to 8:00. Moreover, the dog was given 300 g of CD-5M (manufactured by CLEA Japan, Inc.) as a food once a day. Incidentally, the dog was freely allowed to have tap water.
as §1, §2, §3
Incidentally, the obtained value from each test was regarded as a significant difference when the difference value was less than 5%.
Incidentally, the relative index of each component was calculated based on the formula: (the average value of the concentration in the blood after the administration)/(the average value of the concentration in the blood before the administration).

[2] = pitavastatin 4 mg a day for 6 days vs combined with fenofibrate 160 mg a day or gemfibrozil 600 mg twice a day for 7 days; cited from earlier work
[3] = Day 7-4 hr minus Day0-4 hr, FEN 20 mg/kg and/or PIT 2 mg/kg orally once a day for 7 days, average ± standard error
[4] = Day 7-4 hr, FEN 20 mg/kg and/or PIT 2 mg/kg orally for 7 days

| Compound | ΔFibrinogen (fibrinogen) [mg/dL] | ΔNEFA [1, 3] [μEq/L] | ΔPL [1, 3] [mg/dL] | ΔTG [1, 3] [mg/dL] | Drug interactions (pharmacokinetic parameter, concentration of unchanged pitavastatin in the blood) [2] | ΔTC [1, 3] [mg/dL] | Relative index of NEFA (average concentration after/before administration) [1, 4] | Relative index of PL (average concentration after/before administration) [1, 4] | Relative index of TC (average concentration after/before administration) [1, 4] | Relative index of TG (average concentration after/before administration) [1, 4] |
| --- | --- | --- | --- | --- | --- | --- | --- | --- | --- | --- |
| CC(C)OC(=O)C(C)(C)Oc1ccc(C(=O)c2ccc(Cl)cc2)cc1 [FEN, Fenofibrate] | 6 ± 22 | −25 ± 20 | -71 ± 11 | -38.7 ± 16.3 | – | – | – | – | – | – |
| O=C(O)C[C@H](O)C[C@H](O)/C=C/c1c(C2CC2)nc2ccccc2c1-c1ccc(F)cc1 [PIT, Pitavastatin] | 11 ± 11 | −6 ± 102 | -61 ± 9 | -11.5 ± 4.8 | low degree of the drug interactions | -25.0 ± 3.6 | 0.978 | 0.795 | 0.797 | 0.791 |

— US20090318496A1, “PREPARATION CONTAINING FIBRATE AGENT AND PROCESS FOR PRODUCING THE SAME” (ASKA Pharmaceutical Co., Ltd., priority 2006, published 2009)
